Assays:
[1] = target: T1, Delta-type opioid receptor (Homo sapiens, UniProt P41143); assay: Binding affinity to Opioid receptor delta 1 by competitive inhibition of radioligand [3H]DPDPE using cloned receptors transiently expressed on CHO cells; type: cell-based, Cavia porcellus
Mu-type opioid receptor [2] = target: T2, Mu-type opioid receptor (Cavia porcellus, UniProt P97266); assay: Binding affinity to Opioid receptor mu 1 by competitive inhibition of radioligand [3H]DAMGO using cloned receptors transiently expressed on CHO cells; type: cell-based
[3] = target: T3, Kappa-type opioid receptor (Cavia porcellus, UniProt P41144); assay: Binding affinity to Opioid receptor kappa 1 by competitive inhibition of radioligand [3H]diprenorphine using cloned receptors transiently expressed on CHO cells; type: cell-based
Cavia porcellus = species: Cavia porcellus; assay: Opioid activity in guinea pig ileum; type: functional
[4] = target: T1, Delta-type opioid receptor; assay: Binding affinity of compound was measured on Opioid receptor delta 1 by competitive inhibition of radioligand [3H]DPDPE using cloned receptors transiently expressed on COS-7 (monkey kidney) cells; type: cell-based
Mu-type opioid receptor [5] = target: T2, Mu-type opioid receptor; assay: Binding affinity of compound was measured on Opioid receptor mu 1 by competitive inhibition of radioligand [3H]DAMGO using cloned receptors transiently expressed on COS-7 (monkey kidney) cells; type: cell-based
[6] = target: T3, Kappa-type opioid receptor; assay: Binding affinity of compound was measured on Opioid receptor kappa 1 by competitive inhibition of radioligand [3H]diprenorphine using cloned receptors transiently expressed on COS-7 (monkey kidney) cells; type: cell-based

Row | Structure (SMILES) | Ki [1] [µM] | Ki (Mu-type opioid receptor [2]) [µM] | Ki [3] [µM] | IC50 (Cavia porcellus) [µM] | also measured
1 | CC[C@H](C)[C@H](NC(=O)[C@H](CCCNC(=N)N)NC(=O)[C@H](CCCNC(=N)N)NC(=O)[C@@H](CC(=O)O)NC(=O)[C@H](Cc1ccccc1)NC(=O)CNC(=O)CNC(=O)[C@@H](N)Cc1ccc(O)cc1)C(=O)N[C@@H](CCCNC(=N)N)C(=O)N1CCC[C@H]1C(=O)N[C@@H](CCCCN)C(=O)N[C@@H](CC(C)C)C(=O)N[C@@H](CCCCN)C(N)=O | 1.3 | 0.0061 | 0.058 |  | 
2 | CC[C@H](C)[C@H](NC(=O)[C@H](CCCNC(=N)N)NC(=O)[C@@H](CC(=O)O)NC(=O)[C@H](CC(C)C)NC(=O)[C@H](Cc1ccccc1)NC(=O)CNC(=O)CNC(=O)[C@@H](N)Cc1ccc(O)cc1)C(=O)N[C@@H](CN)C(=O)N1CCC[C@H]1C(=O)N[C@@H](CCCCN)C(=O)N[C@@H](CC(C)C)C(=O)N[C@@H](CCCCN)C(N)=O |  |  |  | 0.074 | Ki ([1]; cho): 0.0082 µM; Ki (Mu-type opioid receptor [2]; cho): 0.0015 µM; Ki ([3]; cho): 0.012 µM
3 | CC[C@H](C)[C@@H]1NC(=O)[C@H](CCCN=C(N)N)NC(=O)[C@H](NC(=O)[C@H](CC(C)C)NC(=O)[C@H](Cc2ccccc2)NC(=O)CNC(=O)CNC(=O)[C@@H](N)Cc2ccc(O)cc2)CC(=O)N[C@H](C(=O)N2CCC[C@H]2C(=O)N[C@@H](CCCCN)C(=O)N[C@@H](CC(C)C)C(=O)N[C@@H](CCCCN)C(=O)O)CNC1=O |  |  |  | 0.046 | 
4 | CC[C@H](C)[C@H](NC(=O)[C@H](CCCNC(=N)N)NC(=O)[C@H](CN)NC(=O)[C@H](CC(C)C)NC(=O)[C@H](Cc1ccccc1)NC(=O)[C@@H](CC(=O)O)NC(=O)CNC(=O)[C@@H](N)Cc1ccc(O)cc1)C(=O)N[C@@H](CCCNC(=N)N)C(=O)N1CCC[C@H]1C(=O)N[C@@H](CCCCN)C(=O)N[C@@H](CC(C)C)C(=O)N[C@@H](CCCCN)C(N)=O |  |  |  | 2.8 | Ki ([4]; cos-7): 1.3 µM; Ki (Mu-type opioid receptor [5]; cos-7): 0.1 µM; Ki ([6]; cos-7): 0.3 µM
5 | CC(C)C[C@H](NC(=O)[C@H](CCCCN)NC(=O)[C@@H]1CCCN1C(=O)[C@H](CCCNC(=N)N)NC(=O)[C@@H]1CCNC(=O)C[C@@H](NC(=O)[C@H](Cc2ccccc2)NC(=O)CNC(=O)CNC(=O)[C@@H](N)Cc2ccc(O)cc2)C(=O)N[C@@H](CCCNC(=N)N)C(=O)N[C@@H](CCCNC(=N)N)C(=O)N1)C(=O)N[C@@H](CCCCN)C(N)=O | 4.1 | 0.04 | 0.014 |  | 
6 | CC(C)C[C@H](NC(=O)[C@H](CCCCN)NC(=O)[C@@H]1CCCN1C(=O)[C@H](CCCNC(=N)N)NC(=O)[C@H](CN)NC(=O)[C@H](CCCNC(=N)N)NC(=O)[C@H](CCCNC(=N)N)NC(=O)[C@@H](CC(=O)O)NC(=O)[C@H](Cc1ccccc1)NC(=O)CNC(=O)CNC(=O)[C@@H](N)Cc1ccc(O)cc1)C(=O)N[C@@H](CCCCN)C(N)=O | 1.6 | 0.0083 | 0.02 |  | 
7 | CC(C)C[C@H](NC(=O)[C@H](CCCCN)NC(=O)[C@@H]1CCCN1C(=O)[C@H](CCCN=C(N)N)NC(=O)[C@@H]1CCCNC(=O)[C@H](CCCN=C(N)N)NC(=O)[C@H](CCCN=C(N)N)NC(=O)[C@H](NC(=O)[C@H](Cc2ccccc2)NC(=O)CNC(=O)CNC(=O)[C@@H](N)Cc2ccc(O)cc2)CC(=O)N1)C(=O)N[C@@H](CCCCN)C(=O)O |  |  |  | 0.53 | 
8 | CC[C@H](C)[C@H](NC(=O)[C@H](CCCNC(=N)N)NC(=O)[C@H](CCCNC(=N)N)NC(=O)[C@H](CC(C)C)NC(=O)[C@H](Cc1ccccc1)NC(=O)[C@@H](CC(=O)O)NC(=O)CNC(=O)[C@@H](N)Cc1ccc(O)cc1)C(=O)N[C@@H](CCCNC(=N)N)C(=O)N1CCC[C@H]1C(=O)N[C@@H](CCCCN)C(=O)N[C@@H](CC(C)C)C(=O)N[C@@H](CCCCN)C(N)=O | 0.43 | 0.18 | 0.028 | 0.44 | 
9 | CC(C)C[C@H](NC(=O)[C@H](CCCCN)NC(=O)[C@@H]1CCCN1C(=O)[C@H](CCCN=C(N)N)NC(=O)[C@@H]1CNC(=O)[C@H](CCCN=C(N)N)NC(=O)[C@H](CCCN=C(N)N)NC(=O)[C@H](NC(=O)[C@H](Cc2ccccc2)NC(=O)CNC(=O)CNC(=O)[C@@H](N)Cc2ccc(O)cc2)CC(=O)N1)C(=O)N[C@@H](CCCCN)C(=O)O |  |  |  | > 5 | 
10 | CC[C@H](C)[C@H](NC(=O)[C@H](CCCNC(=N)N)NC(=O)[C@@H]1CNC(=O)C[C@@H](NC(=O)CNC(=O)[C@@H](N)Cc2ccc(O)cc2)C(=O)N[C@@H](Cc2ccccc2)C(=O)N[C@@H](CC(C)C)C(=O)N1)C(=O)N[C@@H](CCCNC(=N)N)C(=O)N1CCC[C@H]1C(=O)N[C@@H](CCCCN)C(=O)N[C@@H](CC(C)C)C(=O)N[C@@H](CCCCN)C(N)=O |  |  |  | 1 | Ki [4]: 2.8 µM; Ki (Mu-type opioid receptor [5]): 0.91 µM; Ki [6]: 0.48 µM
11 | CC[C@H](C)[C@H](NC(=O)[C@H](CCCNC(=N)N)NC(=O)[C@H](CCCNC(=N)N)NC(=O)[C@@H](CC(=O)O)NC(=O)[C@H](Cc1ccccc1)NC(=O)CNC(=O)CNC(=O)[C@@H](N)Cc1ccc(O)cc1)C(=O)N[C@@H](CCCNC(=N)N)C(=O)N1CCC[C@H]1C(=O)N[C@@H](CCCCN)C(=O)N[C@@H](CC(C)C)C(=O)N[C@@H](CCCCN)C(=O)O |  |  |  | 1.4 | 
12 | CC[C@H](C)[C@H](NC(=O)[C@H](CCCNC(=N)N)NC(=O)[C@@H]1CCCNC(=O)C[C@@H](NC(=O)CNC(=O)[C@@H](N)Cc2ccc(O)cc2)C(=O)N[C@@H](Cc2ccccc2)C(=O)N[C@@H](CC(C)C)C(=O)N1)C(=O)N[C@@H](CCCNC(=N)N)C(=O)N1CCC[C@H]1C(=O)N[C@@H](CCCCN)C(=O)N[C@@H](CC(C)C)C(=O)N[C@@H](CCCCN)C(N)=O |  |  |  | 2.7 | Ki [4]: 0.32 µM; Ki (Mu-type opioid receptor [5]): 0.32 µM; Ki [6]: 0.2 µM
13 | CC[C@H](C)[C@@H]1NC(=O)[C@H](CCCNC(=N)N)NC(=O)[C@H](NC(=O)[C@H](CC(C)C)NC(=O)[C@H](Cc2ccccc2)NC(=O)CNC(=O)CNC(=O)[C@@H](N)Cc2ccc(O)cc2)CC(=O)NCCC[C@@H](C(=O)N2CCC[C@H]2C(=O)N[C@@H](CCCCN)C(=O)N[C@@H](CC(C)C)C(=O)N[C@@H](CCCCN)C(N)=O)NC1=O | 0.028 | 0.0032 | 0.0015 | 0.0068 | 
14 | CC[C@H](C)[C@@H]1NC(=O)[C@H](CCCN=C(N)N)NC(=O)[C@H](NC(=O)[C@H](CC(C)C)NC(=O)[C@H](Cc2ccccc2)NC(=O)CNC(=O)CNC(=O)[C@@H](N)Cc2ccc(O)cc2)CC(=O)N[C@H](C(=O)N2CCC[C@H]2C(=O)N[C@@H](CCCCN)C(=O)N[C@@H](CC(C)C)C(=O)N[C@@H](CCCCN)C(=O)O)CCNC1=O |  |  |  | 0.022 | 
15 | CC(C)C[C@H](NC(=O)[C@H](CCCCN)NC(=O)[C@@H]1CCCN1C(=O)[C@H](CCCN=C(N)N)NC(=O)[C@@H]1CCNC(=O)[C@H](CCCN=C(N)N)NC(=O)[C@H](CCCN=C(N)N)NC(=O)[C@H](NC(=O)[C@H](Cc2ccccc2)NC(=O)CNC(=O)CNC(=O)[C@@H](N)Cc2ccc(O)cc2)CC(=O)N1)C(=O)N[C@@H](CCCCN)C(=O)O |  |  |  | 1.3 | 
16 | CC[C@H](C)[C@@H]1NC(=O)[C@H](CCCNC(=N)N)NC(=O)[C@H](NC(=O)[C@H](CC(C)C)NC(=O)[C@H](Cc2ccccc2)NC(=O)CNC(=O)CNC(=O)[C@@H](N)Cc2ccc(O)cc2)CC(=O)NCC[C@@H](C(=O)N2CCC[C@H]2C(=O)N[C@@H](CCCCN)C(=O)N[C@@H](CC(C)C)C(=O)N[C@@H](CCCCN)C(N)=O)NC1=O | 0.18 | 0.0048 | 0.0025 |  | 
17 | CC(C)C[C@H](NC(=O)[C@H](CCCCN)NC(=O)[C@@H]1CCCN1C(=O)[C@H](CCCNC(=N)N)NC(=O)[C@@H]1CNC(=O)C[C@@H](NC(=O)[C@H](Cc2ccccc2)NC(=O)CNC(=O)CNC(=O)[C@@H](N)Cc2ccc(O)cc2)C(=O)N[C@@H](CCCNC(=N)N)C(=O)N[C@@H](CCCNC(=N)N)C(=O)N1)C(=O)N[C@@H](CCCCN)C(N)=O | 3.3 | 0.075 | 0.008 |  | 
18 | CC[C@H](C)[C@@H]1NC(=O)[C@H](CCCNC(=N)N)NC(=O)[C@H](NC(=O)[C@H](CC(C)C)NC(=O)[C@H](Cc2ccccc2)NC(=O)CNC(=O)CNC(=O)[C@@H](N)Cc2ccc(O)cc2)CC(=O)NC[C@@H](C(=O)N2CCC[C@H]2C(=O)N[C@@H](CCCCN)C(=O)N[C@@H](CC(C)C)C(=O)N[C@@H](CCCCN)C(N)=O)NC1=O |  |  |  |  | Ki ([1]; cho): 0.048 µM; Ki (Mu-type opioid receptor [2]; cho): 0.0044 µM; Ki ([3]; cho): 0.0026 µM
19 | CC(C)C[C@H](NC(=O)[C@H](CCCCN)NC(=O)[C@@H]1CCCN1C(=O)[C@H](CCCNC(=N)N)NC(=O)[C@@H]1CCCNC(=O)C[C@@H](NC(=O)[C@H](Cc2ccccc2)NC(=O)CNC(=O)CNC(=O)[C@@H](N)Cc2ccc(O)cc2)C(=O)N[C@@H](CCCNC(=N)N)C(=O)N[C@@H](CCCNC(=N)N)C(=O)N1)C(=O)N[C@@H](CCCCN)C(N)=O | 1.9 | 0.062 | 0.012 |  | 
20 | CC[C@H](C)[C@H](NC(=O)[C@H](CCCNC(=N)N)NC(=O)[C@H](CCCNC(=N)N)NC(=O)[C@H](CC(C)C)NC(=O)[C@H](Cc1ccccc1)NC(=O)CNC(=O)CNC(=O)[C@@H](N)Cc1ccc(O)cc1)C(=O)N[C@@H](CCCNC(=N)N)C(=O)N1CCC[C@H]1C(=O)N[C@@H](CCCCN)C(=O)N[C@@H](CC(C)C)C(=O)N[C@@H](CCCCN)C(=O)O [ANALOG OF DYNORPHIN A] | 0.0284 | 0.00092 | 0.00031 | 0.00019 | 
21 | CC[C@H](C)[C@H](NC(=O)[C@H](CCCNC(=N)N)NC(=O)[C@@H](CC(=O)O)NC(=O)[C@H](CC(C)C)NC(=O)[C@H](Cc1ccccc1)NC(=O)CNC(=O)CNC(=O)[C@@H](N)Cc1ccc(O)cc1)C(=O)N[C@@H](CCCNC(=N)N)C(=O)N1CCC[C@H]1C(=O)N[C@@H](CCCCN)C(=O)N[C@@H](CC(C)C)C(=O)N[C@@H](CCCCN)C(N)=O | 0.022 | 0.0012 | 0.008 | 0.029 | 
